We go through 16 compounds from ChEMBL document CHEMBL1140573, “Potent achiral agonists of the ghrelin (growth hormone secretagogue) receptor. Part I: Lead identification” (Bioorg Med Chem Lett, 2007).

Series [1] concerns the target T1, Growth hormone secretagogue receptor type 1 (Homo sapiens, UniProt Q92847). Nature of the series: Intrinsic activity at GSHR relative to human ghrelin. Format: functional.
Series [2] has as its target T1, Growth hormone secretagogue receptor type 1. Description: Agonist activity at GSHR by FLIPR assay. The format is functional.
The subject of another series is Rattus norvegicus. Description: Increase in gastric emptying in sc dosed rat. Format: functional. The settings on record: Stomach.
Series [3] relates to Liver microsomes. Description: Metabolic stability in rat liver microsomes. The format is ADME, Microsome.
Series [4] in a line: Aqueous solubility at pH 7.4. The format is physicochemical.
Series [5] is described as follows: Cmax in rat at 1 mg/kg, iv. The format is ADME, organism-based. Also noted: dose 1 mg/kg, route intravenous. The settings on record: in vivo.
The test system of series [6] is Liver microsomes. Nature of the series: Metabolic stability in human liver microsomes. Format: ADME, Microsome.
Series [7] can be described thus: Half life in rat at 1 mg/kg, iv. The format is ADME, organism-based. Also noted: dose 1 mg/kg, route intravenous. The settings on record: in vivo.
Series [8] can be described thus: Clearance in rat blood at 1 mg/kg, iv. Format: ADME, organism-based. Also noted: dose 1 mg/kg, route intravenous. The settings on record: in vivo.
The nature of series [9]: Volume of distribution in rat at 1 mg/kg, iv. Format: ADME, organism-based. Also noted: dose 1 mg/kg, route intravenous. As to conditions: in vivo, read-out: Vdss.
For series [10], the target named is Motilin receptor (Homo sapiens) (UniProt O43193). Nature of the series: Activity at motilin GPR38 receptor.
A short description of series [11]: Distribution coefficient, log D at pH 7.4. The format is physicochemical. As to conditions: octanol/water.
The target of series [12] is 5-hydroxytryptamine receptor 1B (Homo sapiens, UniProt P28222). Nature of the series: Binding affinity at 5HT1B receptor.

Structures are written as SMILES. Values after ≈ are worked out from the molar mass of the structure shown. Active and inactive are the calls of the source. The calls are words filed in the database; no cut-off is given here.

T1 sequence (Q92847 whole entry): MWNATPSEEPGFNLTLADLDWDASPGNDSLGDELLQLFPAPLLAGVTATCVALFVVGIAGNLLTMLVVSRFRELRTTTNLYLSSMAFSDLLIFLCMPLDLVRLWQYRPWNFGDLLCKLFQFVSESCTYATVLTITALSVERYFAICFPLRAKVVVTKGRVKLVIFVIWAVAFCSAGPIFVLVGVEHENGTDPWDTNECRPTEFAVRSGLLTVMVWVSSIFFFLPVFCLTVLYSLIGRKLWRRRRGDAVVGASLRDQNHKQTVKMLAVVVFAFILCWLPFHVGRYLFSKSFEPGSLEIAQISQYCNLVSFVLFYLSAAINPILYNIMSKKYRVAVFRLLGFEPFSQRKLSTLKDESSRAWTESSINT
Chain of 5-hydroxytryptamine receptor 1B (P28222 whole entry): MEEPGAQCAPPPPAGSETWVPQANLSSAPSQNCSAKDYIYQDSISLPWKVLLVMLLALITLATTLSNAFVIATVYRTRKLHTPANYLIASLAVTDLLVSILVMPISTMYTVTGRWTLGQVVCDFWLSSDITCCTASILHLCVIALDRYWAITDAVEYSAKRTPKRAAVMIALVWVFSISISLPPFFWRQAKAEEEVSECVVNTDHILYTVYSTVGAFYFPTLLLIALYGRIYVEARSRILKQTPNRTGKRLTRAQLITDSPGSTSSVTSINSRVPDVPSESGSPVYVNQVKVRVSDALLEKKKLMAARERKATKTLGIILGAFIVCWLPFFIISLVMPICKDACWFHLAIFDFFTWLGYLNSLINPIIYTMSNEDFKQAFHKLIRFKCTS
Chain of Motilin receptor (Homo sapiens) (O43193 whole entry): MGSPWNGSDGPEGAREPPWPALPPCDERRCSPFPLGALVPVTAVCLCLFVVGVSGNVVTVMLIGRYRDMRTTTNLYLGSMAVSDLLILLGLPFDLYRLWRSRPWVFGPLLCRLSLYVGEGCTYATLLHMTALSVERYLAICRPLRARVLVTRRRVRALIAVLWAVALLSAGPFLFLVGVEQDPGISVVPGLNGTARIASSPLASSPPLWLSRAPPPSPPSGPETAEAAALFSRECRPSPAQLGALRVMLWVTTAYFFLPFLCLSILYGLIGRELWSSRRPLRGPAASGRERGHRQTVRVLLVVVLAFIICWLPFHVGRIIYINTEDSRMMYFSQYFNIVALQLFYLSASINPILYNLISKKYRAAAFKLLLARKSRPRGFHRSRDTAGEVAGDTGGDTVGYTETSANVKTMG

As to `COc1cc2c(cc1N1C[C@H](C)NC(C)(C)C1)N(S(=O)(=O)c1ccc(-c3ccccn3)s1)CC2`, the Intrinsic activity in [1] came to 1. The same compound gave an EC50 in series [2] of 0.000794 µM.

Turning to `COc1cc2c(cc1N1C[C@@H](C)N[C@@H](C)C1)N(S(=O)(=O)Cc1cccc(I)c1)CC2`, in series [1], the Intrinsic activity worked out at 0.8. In addition, the concentration giving a half-maximal response (EC50) in series [2] was 0.0316 µM.

Consider `COc1cc2c(cc1N1CCNCC1)N(S(=O)(=O)c1ccc(-c3ccccn3)s1)CC2`, for which, in series [1], the Intrinsic activity stood at 0.8. This compound showed an EC50 in [2] of 0.0631 µM.

As for `COc1cc2c(cc1N1C[C@@H](C)N[C@@H](C)C1)N(S(=O)(=O)c1ccc(-c3ccccn3)s1)CC2`, the median effective dose (ED50) with Rattus norvegicus was 0.1 mg/kg. In [1], the Intrinsic activity came out at 0.9. Further, the results for the Stability in the series with Liver microsomes [3] and in the series with Liver microsomes [6] were 2.6 mL/min/g and 4.5 mL/min/g, respectively. In [4], the solubility amounted to 168 µg/mL (≈ 347 µM). Moreover, the peak level in [5] (Cmax) was 250 nM. This compound also showed an EC50 in series [2] of 0.000158 µM. In series [7], this compound gave a half-life of 2.3 h. The compound further gave a Clearance blood in series [8] of 64 mL/min/kg. Besides, the Vd in series [9] came out at 8.8 L/kg. The outcome in [10] was inactive. Also, the log distribution coefficient (logD) in [11] was found to be 1.8.

For the compound `COc1cc2c(cc1N1CCN[C@H](C)C1)N(S(=O)(=O)c1ccc(-c3ccccn3)s1)CC2`, in series [1], the Intrinsic activity came to 1. Besides, the midpoint of the response in series [2], the EC50, lay at 0.00398 µM.

`COc1cc2c(cc1N1C[C@@H](C)N[C@@H](C)C1)N(S(=O)(=O)c1cccc(-c3ccccn3)c1)CC2` came in with an Intrinsic activity in [1] of 0.9. For the same compound, in series [2], the 50% effective concentration (EC50) is 0.02 µM.

For the compound `COc1cc2c(cc1N1C[C@@H](C)N(C)[C@@H](C)C1)N(S(=O)(=O)c1ccc3ccccc3c1)CC2`, the Intrinsic activity in series [1] is 0.8. In [2], this compound gave a half-maximal effective concentration (EC50) of 0.0398 µM.

As to `COc1cc2c(cc1N1C[C@@H](C)N[C@@H](C)C1)N(S(=O)(=O)c1ccc3ccccc3c1)CC2`, in [1], the Intrinsic activity is 1. The compound also showed a concentration for a half-maximal effect (EC50) in series [2] of 0.000501 µM.

Consider `COc1cc2c(cc1N1C[C@@H](C)N[C@@H](C)C1)N(S(=O)(=O)CCc1ccccc1Cl)CC2`, for which the Intrinsic activity in series [1] worked out at 0.9. In [2], the EC50 is 0.00501 µM.

In [1], `COc1cc2c(cc1N1C[C@@H](C)NC(C)(C)C1)N(S(=O)(=O)c1ccc(-c3ccccn3)s1)CC2` had an Intrinsic activity of 0.8. In series [2], the response was half-maximal at 0.01 µM (EC50).

For `COc1cc2c(cc1N1CCNC(C)(C)C1)N(S(=O)(=O)c1ccc(-c3ccccn3)s1)CC2`, in [1], the Intrinsic activity turned out to be 0.9. The same compound had a 50% effective concentration (EC50) in series [2] of 0.0158 µM.

`CCOc1ccc(CC(=O)N2CCc3cc(OC)c(N4C[C@@H](C)N(C)[C@@H](C)C4)cc32)cc1Cl`: the Intrinsic activity in series [1] stood at 0.7. In addition, affinity in series [12] was put at a Ki of 0.0126 µM. In series [2], this compound gave a concentration for a half-maximal effect (EC50) of 0.158 µM.

On to `COc1cc2c(cc1N1C[C@@H](C)N(C)[C@@H](C)C1)N(S(=O)(=O)c1cccc(Br)c1)CC2`, for which, in [1], the Intrinsic activity is 0.7. In series [12], this compound had a Ki of 2 µM. For the same compound, it took 0.126 µM to reach a half-maximal effect in [2] (EC50).

Regarding `COc1cc2c(cc1N1C[C@@H](C)N[C@@H](C)C1)N(S(=O)(=O)c1ccc(-c3ccon3)s1)CC2`, in series [1], the Intrinsic activity was 0.9. The midpoint of the response in [2], the EC50, lay at 0.00251 µM.

Turning to `COc1cc2c(cc1N1CCN[C@@H](C)C1)N(S(=O)(=O)c1ccc(-c3ccccn3)s1)CC2`, the Intrinsic activity in [1] came to 1. Moreover, a half-maximal effect in series [2] (EC50) was put at 0.00316 µM.

In [1], `COc1cc2c(cc1N1C[C@@H](C)N[C@@H](C)C1)N(S(=O)(=O)c1ccc(-c3ccccn3)cc1)CC2` yielded an Intrinsic activity of 1.1. The response in [2] was half-maximal at 0.0002 µM (EC50).
